The values that follow come from ChEMBL document CHEMBL4229406, “The tyrosinase inhibitory effects of isoxazolone derivatives with a (Z)-β-phenyl-α, β-unsaturated carbonyl scaffold” (Bioorg Med Chem, 2018).

The nature of data set [1]: Antioxidant activity assessed as DPPH-radical scavenging activity at 1 mM incubated for 30 mins under dark condition. Type of data set: functional. On the technique in general: DPPH is a stable violet radical that fades when it is reduced.
Data set [2] in a line: Cytotoxicity against mouse B16F10 cells assessed as cell viability at 10 uM after 24 hrs by MTT assay relative to control. As to conditions: read-out: Activity. Type of data set: cell-based, B16-F10.
The nature of data set [3]: Cytotoxicity against mouse B16F10 cells assessed as cell viability at 25 uM after 24 hrs by MTT assay relative to control. Type of data set: cell-based, B16-F10. As to conditions: read-out: Activity. (In general: Tetrazolium assays rely on reduction of a dye to a coloured formazan, in cell work by metabolically active cells.)
The subject of a further data set is B16-F10. Kind of data set: Antimelanogenic activity in mouse B16F10 cells assessed as inhibition of alpha-MSH-stimulated melanin synthesis measured after 24 hrs by ELISA. Type of data set: functional, cell-based. In general terms: ELISA stands for enzyme-linked immunosorbent assay.
The target in another data set is T1, Tyrosinase (Agaricus bisporus, UniProt O42713).
T1 sequence (O42713 whole entry): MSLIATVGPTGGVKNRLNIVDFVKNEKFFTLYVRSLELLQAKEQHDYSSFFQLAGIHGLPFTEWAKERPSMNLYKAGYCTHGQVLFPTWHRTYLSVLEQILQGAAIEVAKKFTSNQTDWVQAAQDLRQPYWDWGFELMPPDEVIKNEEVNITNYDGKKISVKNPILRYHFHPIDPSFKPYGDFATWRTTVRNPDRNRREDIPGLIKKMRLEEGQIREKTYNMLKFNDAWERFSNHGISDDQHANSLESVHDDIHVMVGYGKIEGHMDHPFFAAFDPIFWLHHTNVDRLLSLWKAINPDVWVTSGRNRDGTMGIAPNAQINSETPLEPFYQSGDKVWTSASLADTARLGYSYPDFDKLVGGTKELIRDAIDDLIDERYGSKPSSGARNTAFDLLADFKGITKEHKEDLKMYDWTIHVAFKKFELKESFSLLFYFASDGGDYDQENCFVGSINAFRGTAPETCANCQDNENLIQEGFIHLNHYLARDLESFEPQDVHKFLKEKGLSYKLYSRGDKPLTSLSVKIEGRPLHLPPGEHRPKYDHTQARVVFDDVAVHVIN
Kind of data set: Inhibition of mushroom tyrosinase using L-tyrosine as substrate measured after 30 mins.

Data set [4] concerns the target T2, Tyrosinase (Mus musculus) (UniProt P11344).
T2 sequence (whole entry): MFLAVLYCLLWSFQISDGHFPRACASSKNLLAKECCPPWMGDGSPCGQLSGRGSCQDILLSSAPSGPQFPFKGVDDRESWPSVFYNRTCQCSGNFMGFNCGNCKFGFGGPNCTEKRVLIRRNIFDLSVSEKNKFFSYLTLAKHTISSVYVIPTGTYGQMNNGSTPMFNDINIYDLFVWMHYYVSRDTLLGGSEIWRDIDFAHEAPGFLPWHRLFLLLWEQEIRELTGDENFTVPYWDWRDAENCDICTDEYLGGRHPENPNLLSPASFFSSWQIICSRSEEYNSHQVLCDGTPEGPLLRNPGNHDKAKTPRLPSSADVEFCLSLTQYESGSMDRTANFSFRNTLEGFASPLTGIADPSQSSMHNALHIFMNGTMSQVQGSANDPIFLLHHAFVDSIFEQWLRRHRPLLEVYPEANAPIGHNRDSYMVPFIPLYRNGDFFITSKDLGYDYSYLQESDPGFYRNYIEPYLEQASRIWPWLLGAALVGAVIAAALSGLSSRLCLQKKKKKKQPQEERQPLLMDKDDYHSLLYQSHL
Kind of data set: Inhibition of tyrosinase in alpha-MSH stimulated mouse B16F10 cells using L-dopa as substrate pretreated for 24 hrs followed by substrate addition and measured after 30 mins.

Data set [5] concerns the target T3, Tyrosinase (Agaricus bisporus) (UniProt O42713).
T3 sequence (whole entry): T1 sequence (O42713 whole entry)
In words: Competitive inhibition of mushroom tyrosinase using varying levels of L-tyrosine as substrate measured after 30 mins by Lineweaver-Burk plot analysis.

A short description of data set [6]: Cytotoxicity against mouse B16F10 cells assessed as cell viability at 5 uM after 24 hrs by MTT assay relative to control. Type of data set: cell-based, B16-F10. As to conditions: read-out: Activity.
In data set [7] the target is T3, Tyrosinase (Agaricus bisporus). As to conditions: 500 uM.
Description: Inhibition of mushroom tyrosinase at 500 uM using L-tyrosine as substrate measured after 30 mins relative to control

For the compound `COc1ccc(/C=C2\C(=O)ON=C2c2ccccc2)c(OC)c1`, the Activity in [1] was 41.8%.

As for `O=C1ON=C(c2ccccc2)/C1=C/c1ccc(O)c(O)c1`, the Activity in data set [1] is 98.6%.

For the compound `O=C1ON=C(c2ccccc2)/C1=C/c1ccc(O)cc1`, in [1], the Activity amounted to 48.4%.

In the case of `O=C1O[C@H]([C@@H](O)CO)C(O)=C1O`, the Activity in [1] is 87.5%.

Regarding `COc1ccc(/C=C2\C(=O)ON=C2c2ccccc2)cc1O`, the Activity in data set [1] is 54.2%.

Take `COc1ccc(/C=C2\C(=O)ON=C2c2ccccc2)cc1OC`: the Activity in data set [1] came to 49.8%.

Regarding `COc1cc(/C=C2\C(=O)ON=C2c2ccccc2)cc(OC)c1O`, the Activity in data set [1] worked out at 94.8%.

On to `O=C1ON=C(c2ccccc2)/C1=C/c1ccc(O)c(Br)c1`, for which the viability at 24 h, 10 µM in data set [2] worked out at 98.7%. Besides, in [3], the viability at 24 h, 25 µM worked out at 96.3%. The inhibition result (in the data set on B16-F10; in data set [4]; in data set [5]) was “Dose-dependent effect” in each case. In data set [1], the Activity was determined as 82.6%. The compound also gave a half-maximal inhibitory concentration (IC50) against Tyrosinase of 14.6 µM. The viability at 24 h, 5 µM in [6] turned out to be 100%.

On to `CCOc1ccc(/C=C2\C(=O)ON=C2c2ccccc2)cc1O`, for which the Activity in [1] was found to be 66.4%.

Consider `COc1cc(/C=C2\C(=O)ON=C2c2ccccc2)ccc1O`, for which the Activity in [1] was found to be 75.3%.

Consider `COc1ccc(/C=C2\C(=O)ON=C2c2ccccc2)cc1`, for which the Activity in data set [1] stood at 47.2%.

With `O=C1ON=C(c2ccccc2)/C1=C/c1ccc(O)cc1O`, in data set [1], the Activity is 46%. The compound also came in with a concentration for half-maximal inhibition (IC50) at Tyrosinase of 32.1 µM.

In the case of `O=C1ON=C(c2ccccc2)/C1=C/c1ccccc1O`, in data set [1], the Activity is 74.4%.

Regarding `OC[C@H]1O[C@@H](Oc2ccc(O)cc2)[C@H](O)[C@@H](O)[C@@H]1O`, the inhibition in data set [7] is 32.6%.

The term inhibition denotes how much of the control response was suppressed. What is called IC50 is the concentration at which inhibition is half-maximal.
